Assays:
[1] = biological target: T1, human SGLT2 (Homo sapiens, UniProt P31639); experiment: Methyl-α-D-[U-14C]glucopyranoside uptake assay in HEK293.ETN cells stably expressing human SGLT2; format: cell-based; conditions: incubation with 25% human serum (symbols in parentheses); 1.5 h incubation
T1 construct: A full-length cDNA clone expressing human SGLT2
T1 sequence (P31639 1-672): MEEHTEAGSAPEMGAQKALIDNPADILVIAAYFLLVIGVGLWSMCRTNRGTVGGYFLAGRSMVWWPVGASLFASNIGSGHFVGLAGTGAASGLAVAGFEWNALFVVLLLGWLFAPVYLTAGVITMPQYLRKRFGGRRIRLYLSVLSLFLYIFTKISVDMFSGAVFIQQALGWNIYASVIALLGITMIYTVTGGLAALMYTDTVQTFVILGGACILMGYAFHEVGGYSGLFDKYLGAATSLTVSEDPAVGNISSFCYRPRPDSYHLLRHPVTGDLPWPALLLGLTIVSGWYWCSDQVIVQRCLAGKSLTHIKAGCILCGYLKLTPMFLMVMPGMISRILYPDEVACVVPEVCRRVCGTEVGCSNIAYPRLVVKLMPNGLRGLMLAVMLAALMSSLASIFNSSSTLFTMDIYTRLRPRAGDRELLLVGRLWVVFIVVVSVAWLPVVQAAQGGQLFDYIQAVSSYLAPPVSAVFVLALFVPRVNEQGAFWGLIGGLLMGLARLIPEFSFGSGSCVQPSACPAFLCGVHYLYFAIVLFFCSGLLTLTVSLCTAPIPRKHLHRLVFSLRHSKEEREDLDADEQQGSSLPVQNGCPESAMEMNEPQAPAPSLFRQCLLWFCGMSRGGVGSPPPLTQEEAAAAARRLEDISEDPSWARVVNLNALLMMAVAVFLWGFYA
Source text: A full-length cDNA clone expressing human SGLT2 (GenScript Corporation) was subcloned into Hind III and Not I sites of pEAK15 expression vector. Clones harboring the cDNA inserts were identified by restriction analysis.
Plasmid containing human SGLT2 was linearized with Nsi I and purified by agarose gel electrophoresis. Using Lipofectamine 2000 Transfection Reagent (Invitrogen Corporation), DNA was transfected into HEK293.ETN cells and cultured in Dulbecco's Modified Eagle Medium (DMEM) containing 10% fetal bovine serum (FBS) at 37° C. under 5% CO2 for 24 h. Transfectants were selected in the same growth medium supplemented with puromycin (Invitrogen Corporation) for two weeks. Puromycin-resistant cells were recovered and seeded on a fresh 96-well plate (single cell per well) and cultured in the presence of puromycin until cells became confluent. Puromycin-resistant clones were evaluated for SGLT2 activity in the methyl-α-D-[U-^14C]glucopyranoside uptake assay described below.
(§1) Cells expressing SGLT1 or SGLT2 were seeded on 96-well ScintiPlate scintillating plates (PerkinElmer, Inc.) in DMEM containing 10% FBS (1×10^5 cells per well in 100 μl medium) incubated at 37° C. under 5% CO2 for 48 h prior to the assay. Cells were washed twice with 150 μl of either sodium buffer (137 mM NaCl, 5.4 mM KCl, 2.8 mM CaCl2, 1.2 mM MgCl2, 10 mM tris(hydroxymethyl)aminomethane/N^2-hydroxyethylpiperazine-N′-ethanesulfonic acid [Tris/Hepes], pH 7.2) or sodium-free buffer (137 mM N-methyl-glucamine, 5.4 mM KCl, 2.8 mM CaCl2, 1.2 mM MgCl2, 10 mM Tris/Hepes, pH 7.2). Test compound in 50 μl each of sodium or sodium-free buffer containing 40 μCi/ml methyl-α-D-[U-^14C]glucopyranoside (Amersham Biosciences/GE Healthcare), either with (symbols in parentheses) or without (symbols without parentheses) 25% human serum, was added per well of a 96-well plate and incubated at 37° C. with shaking for either 2 h (SGLT1 assay) or 1.5 h (SGLT2 assay). Cells were washed twice with 150 μl of wash buffer (137 mM N-methylglucamine, 10 mM Tris/Hepes, pH 7.2) and methyl-α-D-[U-^14C]glucopyranoside uptake was quantitated using a TopCount scintillation counter (PerkinElmer, Inc.). Sodium-dependent glucopyranoside uptake was measured by subtracting the values obtained with sodium-free buffer from those obtained using sodium buffer (average of triplicate determinations).

[2] = biological target: T2, human SGLT1 (Homo sapiens, UniProt P13866); experiment: Methyl-α-D-[U-14C]glucopyranoside uptake assay in COS-7 cells expressing human SGLT1; format: cell-based; conditions: incubation with 25% human serum (symbols in parentheses); 2 h incubation
T2 construct: Full-length human SGLT1 cDNA on pDream2.1 expression vector; host or cells: COS-7 cells (American Type Culture Collection)
T2 sequence (P13866 1-664): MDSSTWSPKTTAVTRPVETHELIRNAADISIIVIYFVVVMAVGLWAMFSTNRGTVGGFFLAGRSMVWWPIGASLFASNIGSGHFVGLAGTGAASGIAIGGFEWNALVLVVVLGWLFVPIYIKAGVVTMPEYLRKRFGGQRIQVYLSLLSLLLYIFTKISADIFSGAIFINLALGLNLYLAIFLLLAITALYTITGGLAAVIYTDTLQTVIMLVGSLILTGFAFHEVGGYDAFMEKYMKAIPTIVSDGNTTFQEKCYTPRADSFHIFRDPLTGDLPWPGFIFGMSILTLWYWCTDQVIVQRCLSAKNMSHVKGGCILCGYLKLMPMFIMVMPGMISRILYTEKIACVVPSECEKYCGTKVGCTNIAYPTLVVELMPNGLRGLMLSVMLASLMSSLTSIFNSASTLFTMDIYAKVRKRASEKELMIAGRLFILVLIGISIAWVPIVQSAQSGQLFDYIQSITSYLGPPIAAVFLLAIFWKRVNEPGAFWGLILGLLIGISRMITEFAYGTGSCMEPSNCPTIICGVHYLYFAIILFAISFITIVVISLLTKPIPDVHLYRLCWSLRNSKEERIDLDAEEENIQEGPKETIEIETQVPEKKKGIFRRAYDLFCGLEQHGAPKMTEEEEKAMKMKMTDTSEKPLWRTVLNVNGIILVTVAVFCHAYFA
Protocol: Full-length human SGLT1 cDNA on pDream2.1 expression vector was obtained from GenScript Corporation and propagated in Escherichia coli strain DH5α using Luria-Bertani (LB) medium containing ampicillin. Plasmid DNA was isolated using the QIAGEN Plasmid Midi Kit (QIAGEN Inc.). […] Transfected cells were stored in DMEM containing 10% dimethyl sulfoxide (DMSO) at −80° C.
as §1

SMILES	IC50 [1]	IC50 [2]
OC[C@H]1O[C@@H](c2ccc(Cl)c(Cc3ccc(OCCOC4C=CCCC4)cc3)c2)[C@H](O)[C@@H](O)[C@@H]1O (stereo partly drawn) [Compound BW, (2S,3R,4R,5S,6R)-2-(4-chloro-3-(4-(2-(cyclohex-2-enyloxy)ethoxy)benzyl)phenyl)-6-(hydroxymethyl)tetrahydro-2H-pyran-3,4,5-triol]	< 1000 nM	> 10000 nM
OC[C@H]1O[C@@H](c2ccc(Cl)c(Cc3ccc(CCCOC4CC4)cc3)c2)[C@H](O)[C@@H](O)[C@@H]1O [Compound DJ, (2S,3R,4R,5S,6R)-2-(4-chloro-3-(4-(3-cyclopropoxypropyl)benzyl)phenyl)-6-(hydroxymethyl)tetrahydro-2H-pyran-3,4,5-triol]	< 1000 nM	1000 to 10000 nM
C#CCOCC(C)Oc1ccc(Cc2cc([C@@H]3O[C@H](CO)[C@@H](O)[C@H](O)[C@H]3O)ccc2Cl)cc1 (stereo partly drawn) [Compound T, (2S,3R,4R,5S,6R)-2-(4-chloro-3-(4-(1-(prop-2-ynyloxy)propan-2-yloxy)benzyl)phenyl)-6-(hydroxymethyl)tetrahydro-2H-pyran-3,4,5-triol]	< 1000 nM	> 10000 nM
OC[C@H]1O[C@@H](c2ccc(Cl)c(Cc3ccc(OCCOC4CCC4)cc3)c2)[C@H](O)[C@@H](O)[C@@H]1O [Compound CM, (2S,3R,4R,5S,6R)-2-(4-chloro-3-(4-(2-cyclobutoxyethoxy)benzyl)phenyl)-6-(hydroxymethyl)tetrahydro-2H-pyran-3,4,5-triol]	< 1000 nM	> 10000 nM

More lines, now with the values ahead:

IC50 [1]	IC50 [2]	SMILES
< 1000 nM	1000 to 10000 nM	CC(COc1ccc(Cc2cc([C@@H]3O[C@H](CO)[C@@H](O)[C@H](O)[C@H]3O)ccc2Cl)cc1)OC1CC1 (stereo partly drawn) [Compound DC, (2S,3R,4R,5S,6R)-2-(4-chloro-3-(4-(2-cyclopropoxypropoxy)benzyl)phenyl)-6-(hydroxymethyl)tetrahydro-2H-pyran-3,4,5-triol]
< 1000 nM	> 10000 nM	CC1(OCCOc2ccc(Cc3cc([C@@H]4O[C@H](CO)[C@@H](O)[C@H](O)[C@H]4O)ccc3Cl)cc2)CC1 [Compound CP, (2S,3R,4R,5S,6R)-2-(4-chloro-3-(4-(2-(1-methylcyclopropoxy)ethoxy)benzyl)phenyl)-6-(hydroxymethyl)tetrahydro-2H-pyran-3,4,5-triol]
< 1000 nM	> 10000 nM	OC[C@H]1O[C@@H](c2ccc(Cl)c(Cc3ccc(OC/C=C/C4CC4)cc3)c2)[C@H](O)[C@@H](O)[C@@H]1O [Compound BZ, (2S,3R,4R,5S,6R)-2-(4-chloro-3-(4-((E)-3-cyclopropylallyloxy)benzyl)phenyl)-6-(hydroxymethyl)tetrahydro-2H-pyran-3,4,5-triol]
